Test results taken from patent US7737119B2, “Cosmetic or pharmaceutical composition comprising peptides, uses and treatment processes” (Societe d'Extraction des Principes Actifs S.A., priority 2002, dated 2010).
One block for each substance: values may come before it. Where no end group is shown, it is not given here.

How the values were obtained:
[1] = Stability of peptide in solution by HPLC (C18) at various temperatures; assay type: physicochemical; conditions: 10^−4 M
Procedure: Peptide SEQ ID NO: 3 Arg-Asp-Phe-Thr-Lys-Ala-Thr-Asn-Ile-Arg-Leu-Arg-Phe-Leu-Arg was analyzed with a concentration of 10^−4 M by HPLC on a C18 type column, and with a linear gradient water/TFA 0.1%-acetonitrile/TFA 0.1%.

[2] = Stability of peptide in culture medium conditioned by human fibroblasts and keratinocytes (released enzymes of degradation); assay type: in vitro ADME; conditions: after 24 hours in culture medium withdrawn from human fibroblasts and keratinocytes cultured 24 hours at 37° C.
Procedure: Human fibroblasts and keratinocytes were cultured during 24 hours at 37° C. and to 5% of CO2. For this period, the cells will release numerous enzymes of degradation in the culture medium. Thereafter, the culture medium is withdrawn to be put in the presence of peptide.

[3] = system: fibroblasts as well as human keratinocytes in culture; assay: Peptide applied to cells in culture, HPLC analysis of the culture medium; assay type: cell-based; conditions: peptide applied to fibroblasts and human keratinocytes in culture, in a few hours
Procedure: A test is performed by applying the peptide to fibroblasts as well as to human keratinocytes in culture.

fibronectin = assay: Immunofluorescence study of fibronectin expression in human fibroblasts; assay type: cell-based; conditions: 1% of a solution at 100 ppm of peptide, 48 hours
Procedure: (§1) The immunofluorescence is a semi-quantitative technique which makes it possible to appreciate the rate of each protein present in the cellular cytoplasm.
(§2) Human fibroblasts are plated in Labteks then cultured for one night. After rinsing with HBS buffer, a composition containing 1% of a solution at 100 ppm of the peptide SEQ ID NO: 5, or a control composition containing no peptide, is added. The cells are then incubated for 48 hours. After performing the elimination of the supernatants and rinsing the cultures, the cells are fixed with paraformaldehyde for 30 minutes at 4° C. then rinsed with PBS buffer.
(§3) 200 μL of anti-fibronectin antibody or anti-collagen I, or anti-collagen III polyclonal antibody obtained in the rabbit (TEBU) are then added. Incubation lasts 30 minutes at room temperature. The supernatants are eliminated and the cells are rinsed with PBS. 200 μL of secondary antibody, coupled to a fluorescent marker (Alexa-fluor 488) are then added. After 30 minutes of incubation at room temperature, the supernatants are eliminated and the cells are rinsed with the PBS.
(§4) The slides are then assembled and examined under epi-fluorescence microscope (Nikon Eclipse E600). The quantities of fibronectine and/or collagen of the type I and III, synthesized by the cells, are proportional to fluorescence intensity.

type I collagen = assay: Immunofluorescence study of type I collagen expression in human fibroblasts; assay type: cell-based; conditions: 1% of a solution at 100 ppm of peptide, 48 hours
Procedure: as §1, §2, §3, §4

type III collagen = assay: Immunofluorescence study of type III collagen expression in human fibroblasts; assay type: cell-based; conditions: 1% of a solution at 100 ppm of peptide, 48 hours
Procedure: as §1, §2, §3, §4

laminin-5 = assay: Immunofluorescence study of laminin-5 expression in HaCat human keratinocytes; assay type: cell-based; conditions: 48 hours
Procedure: as §2, §3, §4
(§5) A study by immunofluorescence technique, identical to that of example 3, was performed on HaCat human keratinocytes, with anti-laminin-5 antibodies and/or β1 anti-integrin antibodies.

β1 integrin = assay: Immunofluorescence study of β1 integrin expression in HaCat human keratinocytes; assay type: cell-based; conditions: 48 hours
Procedure: as §2, §3, §4, §5

keratinocytes = assay: Adhesion between cutaneous cells, MTT reading of adherent keratinocytes in 96 well micro-plates; assay type: cell-based; conditions: after 3 hours of contact with the keratinocytes; compared with the other peptides tested
Procedure: The study is performed in 96 well micro-plates on keratinocytes cultured in an incubator at 37° C. and 5% of CO2.
The wells are pre-treated during 12 hours in a different way; four conditions are thus performed: • Condition A: negative control, containing no peptide; • Condition B: incubated with various peptides, made of 3 to 25 amino acids (from the extracellular matrix), with a concentration from 5 to 50 ppm; • Condition C: incubated with the peptide of sequence Arg-Asp-Phe-Thr-Lys-Ala-Thr-Asn-Ile-Arg-Leu-Arg-Phe-Leu-Arg (SEQ ID NO: 3) to a concentration of 5 ppm.
After 3 hours of contact with the keratinocytes, the wells are completely filled with culture medium, hermetically closed, turned over and agitated on a three-dimensional agitator during 20 minutes. Then the plates are emptied and the medium remaining is aspired. 100 μl of MTT with 1 mg/ml per well is added and is left during 3 hours at 37° C. and 5% of CO2. The solution is finally withdrawn and 100 μl of DMSO is added. A reading of C is made at 560 nm against 630 nm.
The results present the various Optical Density (O.D.) obtained according to the various conditions. The O.D. is proportional to the quantity of viable cells, that is to say those which adhered to the micro-plates.

keratin = assay: Immunofluorescence study of keratin expression in ex vivo human skin samples; assay type: cell-based; conditions: 48 hours
Procedure: as §2, §3, §4
A study by immunofluorescence technique, identical to that of Example 3, was performed on ex vivo human skin samples, with anti-keratin monoclonal antibody (Novocastra).

degradation of the peptide ([1]; after 24 hours at 25° C., 37° C. and 60° C.): no degradation
degradation of the peptide ([1]; after 8 days at 25° C.): does not present degradation
degradation of the peptide [2]: almost no degradation
peptide concentration in the culture medium [3]: decreases quickly
Substance: RDFTKATNIRLRFLR [SEQ ID NO: 3, Arg-Asp-Phe-Thr-Lys-Ala-Thr-Asn-Ile-Arg-Leu-Arg-Phe-Leu-Arg]

Substance: Ile-Arg-Leu-Arg-Phe-Leu-Arg-NH2 (IRLRFLR-NH2) [SEQ ID NO: 5]
fibronectin synthesis (fluorescence intensity) (fibronectin): increases
type I collagen synthesis (fluorescence intensity) (type I collagen): increases
type III collagen synthesis (fluorescence intensity) (type III collagen): increases
laminin-5 synthesis (fluorescence intensity) (laminin-5): increase
β1 integrin synthesis (fluorescence intensity) (β1 integrin): increase

Substance: DFTKATNIRLRFLR [SEQ ID NO: 11]
cell adhesion (keratinocytes): very good cell adhesion

Substance: IRLRFLR [SEQ ID NO: 4]
keratin expression (fluorescence intensity) (keratin): increases
